According to patent publication US8192962B2, “Processes for detecting toxic substances” (Daikin Industries, Ltd., priority 2001, dated 2012):

Tested on: Stress protein genes
Experiment: DNA chip mRNA expression in yeast, stress protein genes (Table 6)
Type: cell-based, Saccharomyces cerevisiae S288C
Protocol: Yeast (Saccharomyces cerevisiae S288C (α SUC2mal mel gap2 CUP1)) were incubated at 25° C. on YPD medium (yeast extract 1%, polypepton 2%, glucose 2%). One of toxic chemical substances was added to the cells at logarithmic growth phase, and the cells were further incubated for two hours. Cells were cultured without any chemical substance in the same condition, and were used as control. Concentrations of the chemical substances were defined to inhibit the growth of the yeast but not lead to death.
After completion of the incubation, the culture was centrifuged to collect the cells. To the cells, sodium acetate buffer (50 mM sodium acetate, 10 mM EDTA, 1% SDS) was added, and the mixture was shaken at 65° C. for five minutes, followed by returning to room temperature, and obtaining the supernatant, of which the procedures were repeated two times. To the supernatant, ½ amount of a solution of phenol/chloroform was added, and the mixture was centrifuged to give a supernatant, which was added with an equal amount of chloroform, and the mixture was centrifuged to give a supernatant. To the supernatant, an equal amount of isopropanol containing 0.3 M sodium acetate was added, and the mixture was allowed to stand at room temperature for 30 minutes, after which the mixture was centrifuged to give a sediment of the whole RNAs. Seventy % ethanol was added to the sediment, and the mixture was again centrifuged to give a sediment, which was then dried and dissolved in water. mRNA was isolated from the whole RNAs as followings. In view of the fact that a poly A chain is attached to the 3′ terminus of mRNA, a polynucleotide having a poly T structure which was immobilized on the surface of latex beads was used to trap the mRNA, and then the mRNA was washed and eluted with spine column (Oligotex-dT30<Super>mRNA Purification Kit, Takara). Reverse transcription of the mRNA was conducted with a reverse transcriptase (Super Script II Reverse Transcriptase; catalogue No. 18064-014, GibcoBRL) using fluorescence-labeled nucleotides to give cDNAs that were introduced with Cy3-dUTP or Cy5-dUTP during the reverse transcription.
The labeled cDNAs were dissolved in TE buffer (10mM Tris-HCl/1 mM EDTA, pH8.0), and the solution was dropped on the DNA chip containing the whole genes of yeast (DNA Chip Research Inc. Japan) so that the cDNAs were hybridized on the DNA chip at 65° C. for over 12 hours. The fluoresces intensity of the DNA chip was read with a scanner, and the ratio relative to the fluorescence intensity resulting from the absence of chemical substance was estimated as the following, which is shown in Tables 1 to 9: […]

manganese ethylenebis(dithiocarbamate) [(8)]
The level of expressed mRNA in the presence of chemical substance/The level of expressed mRNA in the absence of chemical substance (yeast gene YIL033C): 0.7
The level of expressed mRNA in the presence of chemical substance/The level of expressed mRNA in the absence of chemical substance (yeast gene YIR037W): 1.3
The level of expressed mRNA in the presence of chemical substance/The level of expressed mRNA in the absence of chemical substance (yeast gene YIR038C): 1.3
The level of expressed mRNA in the presence of chemical substance/The level of expressed mRNA in the absence of chemical substance (yeast gene YJL128C): 0.9
The level of expressed mRNA in the presence of chemical substance/The level of expressed mRNA in the absence of chemical substance (yeast gene YJL158C): 0.7
The level of expressed mRNA in the presence of chemical substance/The level of expressed mRNA in the absence of chemical substance (yeast gene YJL159W): 0.8
The level of expressed mRNA in the presence of chemical substance/The level of expressed mRNA in the absence of chemical substance (yeast gene YJL165C): 0.7
The level of expressed mRNA in the presence of chemical substance/The level of expressed mRNA in the absence of chemical substance (yeast gene YJR045C): 0.8
The level of expressed mRNA in the presence of chemical substance/The level of expressed mRNA in the absence of chemical substance (yeast gene YJR090C): 0.8
The level of expressed mRNA in the presence of chemical substance/The level of expressed mRNA in the absence of chemical substance (yeast gene YKL161C): 1.9
The level of expressed mRNA in the presence of chemical substance/The level of expressed mRNA in the absence of chemical substance (yeast gene YKL163W): 0.8
The level of expressed mRNA in the presence of chemical substance/The level of expressed mRNA in the absence of chemical substance (yeast gene YKL164C): 0.8
The level of expressed mRNA in the presence of chemical substance/The level of expressed mRNA in the absence of chemical substance (yeast gene YKL210W): 0.9
The level of expressed mRNA in the presence of chemical substance/The level of expressed mRNA in the absence of chemical substance (yeast gene YKR053C): 0.9
The level of expressed mRNA in the presence of chemical substance/The level of expressed mRNA in the absence of chemical substance (yeast gene YLL024C): 0.7
The level of expressed mRNA in the presence of chemical substance/The level of expressed mRNA in the absence of chemical substance (yeast gene YLL026W): 1.4
The level of expressed mRNA in the presence of chemical substance/The level of expressed mRNA in the absence of chemical substance (yeast gene YLL039C): 1.1
The level of expressed mRNA in the presence of chemical substance/The level of expressed mRNA in the absence of chemical substance (yeast gene YLL060C): 5.8
The level of expressed mRNA in the presence of chemical substance/The level of expressed mRNA in the absence of chemical substance (yeast gene YLR006C): 0.9
The level of expressed mRNA in the presence of chemical substance/The level of expressed mRNA in the absence of chemical substance (yeast gene YLR109W): 0.9
The level of expressed mRNA in the presence of chemical substance/The level of expressed mRNA in the absence of chemical substance (yeast gene YLR259C): 0.8
The level of expressed mRNA in the presence of chemical substance/The level of expressed mRNA in the absence of chemical substance (yeast gene YML007W): 1.9
The level of expressed mRNA in the presence of chemical substance/The level of expressed mRNA in the absence of chemical substance (yeast gene YML070W): 1.3
The level of expressed mRNA in the presence of chemical substance/The level of expressed mRNA in the absence of chemical substance (yeast gene YMR021C): 1.3
The level of expressed mRNA in the presence of chemical substance/The level of expressed mRNA in the absence of chemical substance (yeast gene YMR173W): 2.3
The level of expressed mRNA in the presence of chemical substance/The level of expressed mRNA in the absence of chemical substance (yeast gene YMR186W): 0.8
The level of expressed mRNA in the presence of chemical substance/The level of expressed mRNA in the absence of chemical substance (yeast gene YNL064C): 1.4
The level of expressed mRNA in the presence of chemical substance/The level of expressed mRNA in the absence of chemical substance (yeast gene YNL160W): 1.2
The level of expressed mRNA in the presence of chemical substance/The level of expressed mRNA in the absence of chemical substance (yeast gene YNL241C): 0.9
The level of expressed mRNA in the presence of chemical substance/The level of expressed mRNA in the absence of chemical substance (yeast gene YNR076W): 1.0
The level of expressed mRNA in the presence of chemical substance/The level of expressed mRNA in the absence of chemical substance (yeast gene YOL064C): 1.0
The level of expressed mRNA in the presence of chemical substance/The level of expressed mRNA in the absence of chemical substance (yeast gene YOL161C): 0.8
The level of expressed mRNA in the presence of chemical substance/The level of expressed mRNA in the absence of chemical substance (yeast gene YOR008C): 0.8
The level of expressed mRNA in the presence of chemical substance/The level of expressed mRNA in the absence of chemical substance (yeast gene YOR009W): 0.7
The level of expressed mRNA in the presence of chemical substance/The level of expressed mRNA in the absence of chemical substance (yeast gene YOR010C): 0.5
The level of expressed mRNA in the presence of chemical substance/The level of expressed mRNA in the absence of chemical substance (yeast gene YOR027W): 0.9
The level of expressed mRNA in the presence of chemical substance/The level of expressed mRNA in the absence of chemical substance (yeast gene YOR208W): 1.0
The level of expressed mRNA in the presence of chemical substance/The level of expressed mRNA in the absence of chemical substance (yeast gene YPL059W): 1.4
The level of expressed mRNA in the presence of chemical substance/The level of expressed mRNA in the absence of chemical substance (yeast gene YPL106C): 1.2
The level of expressed mRNA in the presence of chemical substance/The level of expressed mRNA in the absence of chemical substance (yeast gene YPL140C): 1.1
The level of expressed mRNA in the presence of chemical substance/The level of expressed mRNA in the absence of chemical substance (yeast gene YPL194W): 1.3
The level of expressed mRNA in the presence of chemical substance/The level of expressed mRNA in the absence of chemical substance (yeast gene YPL223C): 1.2
The level of expressed mRNA in the presence of chemical substance/The level of expressed mRNA in the absence of chemical substance (yeast gene YPL240C): 1.2
The level of expressed mRNA in the presence of chemical substance/The level of expressed mRNA in the absence of chemical substance (yeast gene YPR005C): 1.2
The level of expressed mRNA in the presence of chemical substance/The level of expressed mRNA in the absence of chemical substance (yeast gene YPR026W): 1.0
